Reference: US6706664B1, “Benzoxazole compounds, process for the preparation thereof and herbicides” (UBE Industries, Ltd., priority 1999, dated 2004)

Legend:
Design in all cases: key: 0: normal development; 1: Less damaged; 2: Slightly damaged; 3: Moderately damaged; 4: Severely damaged; 5: All killed
flat sedge = experiment: Herbicidal test for paddy field; type: in vivo, Cyperus serotinus; settings: paddy field pot, 500 g/ha dropwise at 1.5 leaf stage of barnyardgrass, 3 weeks, rank vs non-treated
Protocol: Wagner pots, each having an area of 1/5000 are, were packed with Ube soil (alluvial soil) and planted with seeds or tubers of young rice plant, barnyardgrass, bulrush, flat sedge and monochoria. Then, the pots were filled with water to a depth of 3 cm.
Each wettable powder of the desired compounds (I) shown in Table 1 prepared in accordance with Example 2 was diluted with water containing a surfactant (0.05%) and subjected to dropwise addition treatment by using pipet so that an effective concentration of the compound (I) in each herbicide became 500 g/ha at 1.5 leaf stage of barnyardgrass.
These plants were controlled in a glass house at an average temperature of 25° C. for 3 weeks, and then herbicidal effects thereof were investigated.
The herbicidal effects are evaluated according to the following 6 ranks as compared with non-treated district.
(§1) (0: normal development, 1: Less damaged, 2: Slightly damaged, 3: Moderately damaged, 4: Severely damaged, 5: All killed).

young rice plant = experiment: Herbicidal test for paddy field; type: in vivo; settings: paddy field pot, 500 g/ha dropwise at 1.5 leaf stage of barnyardgrass, 3 weeks, rank vs non-treated
How it was run: (§2)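 Scores ran from 0 (normal development) to 5 (all killed) against untreated pots, judged after 3 weeks in a glasshouse averaging 25° C. Compound, as wettable powder diluted in water with 0.05% surfactant, was applied dropwise into 3 cm-deep paddy water at 500 g/ha. Application was at the 1.5-leaf stage of barnyardgrass.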

common lambsquartes = experiment: Foliar spread test for upland field; type: in vivo, Chenopodium album; settings: foliar spray 500 ppm, 3 weeks, rank vs non-treated
How it was run: (§3)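 Wettable powders at 500 ppm, with 0.5% surfactant, were sprayed uniformly over plants raised for roughly 2 weeks in glasshouse pots of volcanic ash soil. Herbicidal damage rated on a 0–5 scale (5 = all killed) after a further 3 weeks at an average 25 °C.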

Large crabgrass = experiment: Foliar spread test for upland field; type: in vivo, Digitaria adscendens; settings: foliar spray 500 ppm, 3 weeks, rank vs non-treated
How it was run: as §3

sugar beat = experiment: Foliar spread test for upland field; type: in vivo; settings: foliar spray 500 ppm, 3 weeks, rank vs non-treated
How it was run: (§4)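 Crop seeds sown in volcanic ash soil in Wagner pots were raised about 2 weeks in a glasshouse, then sprayed with wettable-powder formulations diluted to 500 ppm in water with 0.5% surfactant. After 3 weeks at an average 25° C., injury was scored 0 (normal) to 5 (all killed).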

cotton = experiment: Foliar spread test for upland field; type: in vivo; settings: foliar spray 500 ppm, 3 weeks, rank vs non-treated
How it was run: as §4

soybean = experiment: Foliar spread test for upland field; type: in vivo; settings: foliar spray 500 ppm, 3 weeks, rank vs non-treated
How it was run: as §4

solgum = experiment: Foliar spread test for upland field; type: in vivo; settings: foliar spray 500 ppm, 3 weeks, rank vs non-treated
How it was run: as §4

wheat = experiment: Foliar spread test for upland field; type: in vivo; settings: foliar spray 500 ppm, 3 weeks, rank vs non-treated
How it was run: as §4

corn = experiment: Foliar spread test for upland field; type: in vivo; settings: foliar spray 500 ppm, 3 weeks, rank vs non-treated
How it was run: as §4

morning glory = experiment: Foliar spread test for upland field; type: in vivo, Ipomoea spps.; settings: foliar spray 500 ppm, 3 weeks, rank vs non-treated
How it was run: as §3

barnyardgrass [1] = experiment: Herbicidal test for paddy field; type: in vivo, Echinochloa crusgalli; settings: paddy field pot, 500 g/ha dropwise at 1.5 leaf stage of barnyardgrass, 3 weeks, rank vs non-treated
How it was run: as §2

blackgrass = experiment: Foliar spread test for upland field; type: in vivo, Alopecurus aegualis; settings: foliar spray 500 ppm, 3 weeks, rank vs non-treated
How it was run: as §3

annual bluegrass = experiment: Foliar spread test for upland field; type: in vivo, Poa annua; settings: foliar spray 500 ppm, 3 weeks, rank vs non-treated
How it was run: as §3

bulrush = experiment: Herbicidal test for paddy field; type: in vivo, Scrips juncoides; settings: paddy field pot, 500 g/ha dropwise at 1.5 leaf stage of barnyardgrass, 3 weeks, rank vs non-treated
How it was run: as §2

green foxtail = experiment: Foliar spread test for upland field; type: in vivo, Setaria viridis; settings: foliar spray 500 ppm, 3 weeks, rank vs non-treated
How it was run: as §3

barnyardgrass [2] = experiment: Foliar spread test for upland field; type: in vivo, Echinochloa crusgalli; settings: foliar spray 500 ppm, 3 weeks, rank vs non-treated
Excerpt: as §1
Wagner pots, each having an area of 1/5000 are, were packed with volcanic ash soil and then each seed of corn, soybean, cotton, wheat, solgum, sugar beat, Large crabgrass, barnyardgrass, green foxtail, blackgrass, annual bluegrass, common lambsquartes, livid amaranth, velvetleaf and morning glory was planted, covered with soil and grown in a glass house at an average temperature of […] for about 2 weeks.
Each wettable powder of the desired compounds (I) shown in Table 1 prepared in accordance with Example 2 was diluted to 500 ppm with water containing a surfactant (0.5%) and then uniformly sprayed on the above respective plants.
After these plants were controlled in a glass house at an average temperature of 25° C. for 3 weeks, the herbicidal effects thereof were investigated.
The herbicidal effects were evaluated according to the evaluation method described in the above (1).

velvetleaf = experiment: Foliar spread test for upland field; type: in vivo, Abutilon theophrasti; settings: foliar spray 500 ppm, 3 weeks, rank vs non-treated
How it was run: as §3

livid amaranth = experiment: Foliar spread test for upland field; type: in vivo, Amaranthus lividus; settings: foliar spray 500 ppm, 3 weeks, rank vs non-treated
How it was run: as §3

monochoria = experiment: Herbicidal test for paddy field; type: in vivo, Monochoria vaginalis; settings: paddy field pot, 500 g/ha dropwise at 1.5 leaf stage of barnyardgrass, 3 weeks, rank vs non-treated
How it was run: as §2

CCCC(Oc1cccc(C#N)c1)c1nc2cc(Cl)ccc2o1 (centres unmarked) [Compound 457]
Effect Flat sedge (flat sedge): 4
Effect Young rice plant (young rice plant): 1
Effects Common lambsquarters (common lambsquartes): 3
Effects Large crabgrass (Large crabgrass): 2
Effects Sugar beat (sugar beat): 3
Effects Cotton (cotton): 3
Effects Soybean (soybean): 3
Effects Solgum (solgum): 2
Effects Wheat (wheat): 2
Effects Corn (corn): 1
Effects Morning glory (morning glory): 3
Effect Barnyardgrass (barnyardgrass [1]): 4
Effects Blackgrass (blackgrass): 2
Effects Annual bluegrass (annual bluegrass): 2
Effect Bulrush (bulrush): 4
Effects Green foxtail (green foxtail): 3
Effects Barnyardgrass (barnyardgrass [2]): 2
Effects Velvetleaf (velvetleaf): 3
Effects Livid amaranth (livid amaranth): 4
Effect Monochoria (monochoria): 4
